Results as given in patent US7638494B2, “G-type peptides to ameliorate atherosclerosis” (The Regents of the University of California, priority 2002, dated 2009).
Read-outs that look alike come from different tables or passages of the source.

Assays:
LDL receptor null mice = assay: HDL protective capacity in LDL receptor null mice given peptide in drinking water; type: in vivo
Description: D-4F designated as F, or the apoJ peptide made from D amino acids (D-J336, designated as J) was added to the drinking water of LDL receptor null mice (4 per group) at 0.25 or 0.5 mg per ml of drinking water. After 24- or 48-hrs blood was collected from the mice and their HDL was isolated and tested for its ability to protect against LDL-induced monocyte chemotactic activity. Assay controls included culture wells that received no lipoproteins (no addition), or control human LDL alone (designated as LDL, 200 μg cholesterol/ml), or control LDL+control human HDL (designated as +HDL, 350 μg HDL cholesterol). For testing the mouse HDL, the control LDL was added together with mouse HDL (+F HDL or +J HDL) to artery wall cell cultures. The mouse HDL was added at 100 μg cholesterol/ml respectively.

apo E null mice [1] = assay: Protection against LDL-induced monocyte chemotactic activity by HDL from apo E null mice given oral peptides; type: in vivo; details: for potency compared with D-4F in enhancing HDL protective capacity: apo E null mice, added to the drinking water (FIG. 4)
Description: FIG. 4 illustrates the effect of oral apoA-1 peptide mimetic and apoJ peptide on HDL protective capacity. […] After 24 hrs blood was collected, plasma fractionated by FPLC and fractions containing LDL (designated as mLDL for murine LDL) and fractions containing HDL (designated as mHDL) were separately pooled and HDL protective capacity against LDL oxidation as determined by LDL-induced monocyte chemotactic activity was determined. For the assay controls the culture wells received no lipoproteins (no additions), mLDL alone (at 200 μg cholesterol/ml), or mLDL+standard normal human HDL (designated as Cont. h HDL, at 350 μg HDL cholesterol/ml).
For testing the murine HDL, mLDL together with murine HDL (+F mHDL or +J mHDL) were added to artery wall cell cultures. […] The murine HDL was used at 100 μg cholesterol/ml.

[2] = tested on: Human aortic endothelial cells; assay: Prevention of LDL-induced monocyte chemotactic activity by pre-treatment (pre-incubation) of artery wall cells; type: cell-based; details: pre-incubation 6 hrs, washed, then control human LDL 200 μg protein/ml overnight; relative to D-4F (FIG. 2)
Description: FIG. 2 illustrates a comparison of the effect of D-4F with the effect of D-J336 on the prevention of LDL induced monocyte chemotactic activity in a pre-incubation. Human aortic endothelial cells were pre-incubated with D-J336 or D-4F at 4, 2, and 1 μg/ml for DJ336 or 100, 50, 25, and 12.5 μg/ml for D-4F for 6 hrs. The cultures were then washed and were incubated with medium alone (no addition), or with control human LDL (200 μg protein/ml), or with control human LDL+control human HDL (350 μg HDL protein/ml) as assay controls. The wells that were pre-treated with peptides received the control human LDL at 200 μg protein/ml. Following overnight incubation, the supernatants were assayed for monocyte chemotactic activity.

PON1 = details: apo E null mice, added to the drinking water, 24 hrs, plasma (FIG. 7)
Description: After 24 hrs blood was collected and plasma was assayed for PON1 activity.

apo E null mice [3] = assay: LDL susceptibility to oxidation: ability of LDL from apoE null mice given oral peptides to induce monocyte chemotactic activity; type: in vivo; details: added to the drinking water, 24 hrs (FIG. 5)
Description: FIG. 5 illustrates the effect of oral apo A-1 peptide mimetic and apoJ peptide on LDL susceptibility to oxidation. […] After 24 hrs blood was collected from the mice shown in FIG. 4, plasma fractionated by FPLC and fractions containing LDL (designated as mLDL for murine LDL) were pooled and LDL susceptibility to oxidation as determined by induction of monocyte chemotactic activity was determined.
Murine LDL, mLDL, from mice that received the D-4F mLDL) or those that received the apoJ peptide (J mLDL) were added to artery wall cell cultures.

apo E null mice [4] = details: added to the drinking water, 24 hrs, human artery wall co-culture (FIG. 6)
Description: FIG. 6 illustrates the effect of oral apoA-1 peptide mimetic and apoJ peptide on HDL protective capacity. […] After 24 hrs blood was collected, plasma fractionated by FPLC and fractions containing HDL (designated as mHDL) were pooled and HDL protective capacity against PAPC oxidation as determined by the induction of monocyte chemotactic activity was determined. For the assay controls the culture wells received no lipoproteins (no additions), the phospholipid PAPC at 20 μg /ml+HPODE, at 1.0 μg/ml, or PAPC+HPODE plus standard normal human HDL (at 350 μg HDL cholesterol/ml and designated as +Cont. h HDL).
For testing the murine HDL, PAPC+HPODE together with murine HDL (+F mHDL or +J mHDL) were added to artery wall cell cultures. […] The murine HDL was used at 100 μg cholesterol/ml.

For Ac-LLEQLNEQFNWVSRLANLTQGE-NH2 [D-J336], the “activity of mouse HDL in preventing control LDL from inducing monocyte chemotactic activity, compared with control human HDL” value (LDL receptor null mice; LDL receptor null mice, 0.25 or 0.5 mg per ml drinking water, 24 or 48 hrs, mouse HDL at 100 μg/ml) was “as active as 350 μg/ml of control human HDL”, the “effectiveness compared with D4F in preventing LDL-induced monocyte chemotactic activity” value (LDL receptor null mice; given orally to LDL receptor null mice (FIG. 3)) was “essentially as effective as D4F” and the “potency compared with D-4F in enhancing HDL protective capacity” value (apo E null mice [1]) was “as potent as D4F”. For the same substance, the “potency compared with D-4F in enhancing HDL protective capacity” value (apo E null mice [1]; listed as D-J peptide) was “as potent as D-4F”, the “activity of murine HDL compared with normal human HDL against LDL-induced monocyte chemotactic activity” value (apo E null mice [1]; apoE null mice, peptide in drinking water, 24 hrs, murine HDL at 100 μg/ml) was “as active as 350 μg/ml of normal human HDL” and the “times more potent than D-4F in preventing LDL oxidation by artery wall cells” value [2] was 10-25 times. For the same substance, the “potency compared with D-4F in increasing paraoxonase activity” value (PON1) was “at least as potent as D-4F”, the “potency compared with D-4F in increasing paraoxonase activity” value (PON1; listed as DJ336) was “at least as potent as D4F” and the “potency compared with D-4F in rendering LDL resistant to oxidation by human artery wall cells (induction of monocyte chemotactic activity)” value (apo E null mice [3]) was “lightly more potent than D-4F”. For the same substance, the “potency compared with D-4F in rendering LDL resistant to oxidation by human artery wall cells (induction of monocyte chemotactic activity)” value (apo E null mice [3]; listed as DJ336) was “slightly more potent than D4F”, the “potency compared with D-4F in causing HDL to inhibit oxidation of PAPC by HPODE (generation of monocyte chemotactic activity)” value (apo E null mice [4]) was “as potent as D-4F” and the “potency compared with D-4F in causing HDL to inhibit oxidation of PAPC by HPODE (generation of monocyte chemotactic activity)” value (apo E null mice [4]; listed as DJ336) was “as potent as D4F”.
